Experiments:
[1] = recorded, background statement; cited from earlier work
P. acnes [2] = assay: CFU assay against P. acnes; format: cell-based; conditions: FIG. 4
IL-12p40 = assay: P. acnes stimulated IL-12p40 production by primary human monocytes; format: cell-based; conditions: primary human monocytes stimulated with P. acnes; dilutions 1, 10^-1, 10^-2; FIG. 5
eukaryotic cells = assay: MTT assay; format: cell-based; conditions: FIG. 6
P. acnes [3] = assay: Scanning electron microscopy of P. acnes; format: cell-based; conditions: FIG. 7

Row | Structure (SMILES) | success as acne medication [1] | killing of P. acnes, benzoyl peroxide un-encapsulated or nanoparticle encapsulated (P. acnes [2]) | inhibition of IL-12p40 production (IL-12p40) | toxicity to eukaryotic cells (eukaryotic cells) | physical changes in the bacteria, compared with control (P. acnes [3])
1 | CC1=C(/C=C/C(C)=C/C=C/C(C)=C\C(=O)O)C(C)(C)CCC1 [Isotretinoin] | 80-90% |  |  |  | 
2 | O=C(OOC(=O)c1ccccc1)c1ccccc1 [benzoyl peroxide] |  | kills bacteria | inhibited | not toxic | destroy the bacteria and kill P. acnes

Reference: patent US20110135742A1, “CONTROLLED RELEASE ENCAPSULATED ANTI-BACTERIAL AND ANTI-INFLAMMATORY NANOPARTICLES” (The Regents of the University of California, priority 2006, published 2011)
